Data: paper PMC9030932, “Development of Dibenzothiazepine Derivatives as Multifunctional Compounds for Neuropathic Pain” (Pharmaceuticals, 2022)
“Also recorded” adds a separate entry of the source. Where two headings read alike, the source gives them in different places. Marks after values point to notes of the source that are not given here.

What was measured:
[1] = biological target: human dopamine transporter (hDAT) (Homo sapiens, UniProt Q01959); test: Neurotransmitter transporter uptake assay, HEK-hDAT; format: cell-based
Sequence of human dopamine transporter (hDAT) (Q01959 whole entry): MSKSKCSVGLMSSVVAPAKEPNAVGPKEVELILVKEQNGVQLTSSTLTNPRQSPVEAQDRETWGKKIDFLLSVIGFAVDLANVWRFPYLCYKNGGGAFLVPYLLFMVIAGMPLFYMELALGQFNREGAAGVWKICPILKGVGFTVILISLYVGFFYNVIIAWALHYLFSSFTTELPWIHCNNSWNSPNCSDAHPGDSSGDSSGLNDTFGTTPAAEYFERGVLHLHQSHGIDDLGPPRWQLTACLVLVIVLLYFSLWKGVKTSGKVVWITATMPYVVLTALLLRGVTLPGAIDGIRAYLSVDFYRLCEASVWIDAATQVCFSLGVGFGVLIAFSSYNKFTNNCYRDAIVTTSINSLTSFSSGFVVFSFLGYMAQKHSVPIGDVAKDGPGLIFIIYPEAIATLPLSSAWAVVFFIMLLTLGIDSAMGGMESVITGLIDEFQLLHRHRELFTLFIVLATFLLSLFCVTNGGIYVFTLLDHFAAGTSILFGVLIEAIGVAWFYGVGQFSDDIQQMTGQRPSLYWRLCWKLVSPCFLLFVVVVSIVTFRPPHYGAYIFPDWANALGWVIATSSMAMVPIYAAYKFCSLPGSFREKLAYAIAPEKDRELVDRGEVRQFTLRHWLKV

[2] = biological target: human serotonin transporter (hSERT) (Homo sapiens, UniProt P31645); test: Neurotransmitter transporter uptake assay, HEK-hSERT; format: cell-based
Sequence of human serotonin transporter (hSERT) (P31645 whole entry): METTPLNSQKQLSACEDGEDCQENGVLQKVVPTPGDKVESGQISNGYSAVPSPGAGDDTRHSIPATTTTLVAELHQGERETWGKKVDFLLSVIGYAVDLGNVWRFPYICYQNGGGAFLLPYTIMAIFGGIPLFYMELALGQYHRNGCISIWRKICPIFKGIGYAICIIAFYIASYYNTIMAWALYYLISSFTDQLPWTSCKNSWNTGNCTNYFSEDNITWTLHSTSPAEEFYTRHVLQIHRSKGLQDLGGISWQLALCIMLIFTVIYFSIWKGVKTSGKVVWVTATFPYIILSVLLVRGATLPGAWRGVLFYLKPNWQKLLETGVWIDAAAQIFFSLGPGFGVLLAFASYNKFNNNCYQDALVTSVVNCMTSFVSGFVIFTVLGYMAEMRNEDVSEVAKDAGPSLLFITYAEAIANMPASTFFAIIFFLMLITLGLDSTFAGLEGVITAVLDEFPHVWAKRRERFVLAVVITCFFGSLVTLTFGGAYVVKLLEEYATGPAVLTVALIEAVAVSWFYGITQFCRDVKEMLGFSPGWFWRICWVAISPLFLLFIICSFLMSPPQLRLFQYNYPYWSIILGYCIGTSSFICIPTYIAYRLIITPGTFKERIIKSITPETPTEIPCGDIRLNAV

[3] = biological target: human norepinephrine transporter (hNET) (Homo sapiens, UniProt P23975); test: Neurotransmitter transporter uptake assay, HEK-hNET; format: cell-based
Sequence of human norepinephrine transporter (hNET) (P23975 whole entry): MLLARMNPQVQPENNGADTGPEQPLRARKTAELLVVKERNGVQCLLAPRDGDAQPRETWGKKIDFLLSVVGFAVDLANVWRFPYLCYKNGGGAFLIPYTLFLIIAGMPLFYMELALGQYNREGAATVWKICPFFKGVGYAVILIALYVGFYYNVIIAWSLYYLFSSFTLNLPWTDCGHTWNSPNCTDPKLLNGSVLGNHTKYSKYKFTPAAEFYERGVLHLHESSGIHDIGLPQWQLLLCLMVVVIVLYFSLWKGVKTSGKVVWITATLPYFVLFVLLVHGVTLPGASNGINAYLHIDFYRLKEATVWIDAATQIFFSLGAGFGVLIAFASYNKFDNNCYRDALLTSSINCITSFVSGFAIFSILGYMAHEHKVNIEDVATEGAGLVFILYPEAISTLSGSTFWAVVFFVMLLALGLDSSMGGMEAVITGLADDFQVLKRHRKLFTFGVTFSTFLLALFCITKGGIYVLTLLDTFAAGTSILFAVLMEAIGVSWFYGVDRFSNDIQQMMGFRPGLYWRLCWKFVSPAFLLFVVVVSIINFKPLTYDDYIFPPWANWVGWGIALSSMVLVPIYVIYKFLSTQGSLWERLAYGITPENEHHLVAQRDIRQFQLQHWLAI

[4] = biological target: T1, human κ-opioid receptor (OPRK1) (Homo sapiens, UniProt P41145); test: Intracellular calcium mobilization (FLIPR Tetra), HEK-hKOR agonism; format: cell-based; conditions: for agonistic activity at the κ-opioid receptor: HEK-hKOR calcium mobilization; for activation at 10 µM: read-out: % Stimulation at 10 μM, OPRK1 Agonism against DynorphinA (370 nM)
T1 construct: host or cells: HEK293 (constitutive expression)
T1 sequence (P41145 whole entry): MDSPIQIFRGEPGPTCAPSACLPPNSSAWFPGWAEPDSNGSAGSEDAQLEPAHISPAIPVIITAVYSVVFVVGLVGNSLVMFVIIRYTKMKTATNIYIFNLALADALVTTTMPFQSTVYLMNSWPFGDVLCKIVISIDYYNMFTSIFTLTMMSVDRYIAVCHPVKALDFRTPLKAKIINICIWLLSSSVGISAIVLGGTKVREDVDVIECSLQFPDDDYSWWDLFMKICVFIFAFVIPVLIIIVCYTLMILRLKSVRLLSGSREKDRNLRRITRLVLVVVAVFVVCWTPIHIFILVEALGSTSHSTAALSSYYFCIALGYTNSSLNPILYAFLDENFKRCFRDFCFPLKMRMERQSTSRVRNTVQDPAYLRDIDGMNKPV
Description: Intracellular calcium mobilization was measured by using FLIPR Tetra System (Molecular Devices, Sunnyvale, CA, USA) in accordance with manufacturer’s instruction. […] Subsequently, the plate was transferred to the FLIPR tetra system for treating 50 μL of the 5× compounds diluted in loading buffer and reading intracellular calcium mobilization. The final concentration of DMSO was 0.1%. […] A dose response curve was generated with the changes in Relative Fluorescence Units (∆RFU) versus Log10 dose.
Experimental details for Biology
Cell culture. HEK293 cells stably expressing human DA transporter (HEK-hDAT), human NE transporter (HEK-hNET) and human serotonin transporter (HEK-hSERT) were kindly provided by Professor Bryan Roth (University of North Carolina at Chapel Hill). And HEK293 cells constitutively expressing human κ- or μ- opioid receptor (HEK-hKOR_NM000912 or HEK-hMOR_NM000914) were constructed by Professor Ki Duk Park (in Korea Institute of Science […]
Europins DiscoveRx (Fremont, CA, USA). Cells were mainta ined in Dulbecco's modified Eagle's medium (HyClone, Logan, UT, USA) supplemented with 10%(v/v) fetal bovine serum (FBS, HyClone, Logan, UT, USA), penicillin (100 U/mL), and streptomycin (100 μg/mL) in the […]
for HEK-hDAT, HEK-hNET, HEK-hSERT, HEK-hKOR and HEK-hMOR respectively) in a humidified 5% CO2 incubator at 37 °C. In case of both HEK-hKOR and HEK-hMOR, cells were additionally maintained in 0.2 mg/mL hygromycin B, 1 μg/mL puromycin B, 1× non-essential amino acids. The cells were subcultured every 3-4 days. […]

[5] = biological target: T2, human μ-opioid receptor (OPRM1) (Homo sapiens, UniProt P35372); test: Intracellular calcium mobilization (FLIPR Tetra), HEK-hMOR agonism; format: cell-based; conditions: for agonistic activity at the μ-opioid receptor: compared to DAMGO
T2 construct: host or cells: HEK293 (constitutive expression)
T2 sequence (P35372 whole entry): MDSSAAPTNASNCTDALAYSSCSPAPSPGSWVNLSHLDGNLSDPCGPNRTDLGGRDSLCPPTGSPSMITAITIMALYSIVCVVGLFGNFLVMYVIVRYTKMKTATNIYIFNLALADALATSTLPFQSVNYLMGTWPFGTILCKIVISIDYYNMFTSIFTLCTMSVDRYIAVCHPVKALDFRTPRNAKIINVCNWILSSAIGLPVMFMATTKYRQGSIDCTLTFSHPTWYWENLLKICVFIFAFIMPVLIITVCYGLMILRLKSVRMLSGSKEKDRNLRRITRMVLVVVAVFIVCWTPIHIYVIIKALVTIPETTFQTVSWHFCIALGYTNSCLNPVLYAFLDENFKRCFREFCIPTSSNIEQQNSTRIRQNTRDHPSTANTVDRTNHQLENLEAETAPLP

hOPRM1 receptor = biological target: T3, hOPRM1 receptor (Homo sapiens, UniProt P35372); test: PathHunter CHO-K1 OPRM1 β-arrestin recruitment assay; format: cell-based
T3 construct: host or cells: CHO-K1
T3 sequence (P35372 whole entry): as above

[6] = tested on: spinal-nerve-ligated neuropathic pain rats; test: Spinal nerve ligation (SNL) neuropathic pain model, von Frey paw withdrawal threshold, intrathecal; format: in vivo, rat; conditions: for maximum possible effect (MPE): highest dose (12: 100 μg; 17: 30 μg); for effect on paw withdrawal threshold (PWT) / allodynia: vs vehicle
Description: Adult male Sprague-Dawley rats weighing 150–180 g each were used. The animals were housed in a room with a constant temperature of 22–23 °C and an alternating 12-h light/dark cycle, with unrestricted access to food and water. Implantation of intrathecal catheters was performed for drug administration under sevoflurane anesthesia, as described previously. Seven days of recovery were allowed after surgery before the use of catheterized rats in the experiments. Spinal nerve-ligated neuropathic pain was induced by tightly ligating the left L5 and L6 spinal nerves, as described previously. Only rats showing allodynia after either spinal nerve ligation (withdrawal threshold < 4 g) were studied. The von Frey test was used to determine the 50% probability paw withdrawal threshold (PWT), using the up and down method, in which a positive response was defined as brisk withdrawal or paw flinching during or immediately after application of a filament. On experimentation days (12 days after SNL), rats were acclimatized in a box with a wire mesh floor for at least 20 min before being randomly allocated to one of the experimental groups. All experiments were carried out by an observer who was blind to the treatments. To investigate the effects of 12 (30 or 100 μg) and 17 (10 or 30 μg), it was supplied intrathecally following post-injury baseline PWT determination in rats with either spinal nerve-ligated neuropathic pain. Withdrawal thresholds were determined at 15, 30, 60, 90, 120, 150, and 180 min after intrathecal administration.
All data are expressed as means ± SEM. The time-response data are presented as the withdrawal threshold in grams. The dose-response data are presented as a percentage of the maximum possible effect (%MPE): %MPE = ((post-drug threshold−post-injury baseline threshold)/(cutoff threshold−post-injury baseline threshold)) × 100. Time and dose-response data were analyzed by a one-way and two-way repeated measures analysis of variance (ANOVA), with a Bonferroni’s post hoc test. A p-value < 0.05 was considered statistically significant.

rats = test: Behavioral responses: motor functions (righting, placing/stepping reflexes), pinna and corneal reflexes after intrathecal administration; format: in vivo, rat; conditions: highest doses, examined for 3 h
Description: Motor functions were assessed by examining righting and placing/stepping reflexes. […] The […] was evoked by the rat drawing the dorsum of either hind paw across the edge of a table. Normally, rats attempt to place a paw into a position that enables walking. The pinna and corneal reflexes were evoked by stimulating the ear canal or cornea, respectively, with a string. Normally, rats spontaneously shake their heads or blink. Normality of behavior was classified as present or absent. To evaluate the behavioral changes induced by compounds 12 and 17, additional rats were examined for 3 h after intrathecal administration of the highest doses of the agents used. The motor function and pinna and corneal reflexes were normal after intrathecal administration of compounds 12 and 17 at the highest doses. Overt abnormal behavioral changes were not observed.

[7] = In vitro metabolic stability, human; format: in vitro ADME; conditions: for in vitro metabolic stability: S9 microsomal fraction, 30 min, Table S1; for recovery at 30 min, 1 µM: human, pH 7.4, % remaining after 30 min incubation with S9 microsomal fraction
Description: (§1) Experimental details for Biology […]
(§2) Microsomal stability. The metabolic stability of compounds was evaluated in rat liver microsomes (RLM). Microsomes (0.5 mg/ml) and test compound (1 µM) in 100 mM potassium phosphate buffer (pH 7.4) were preincubated with shaking (100 rpm) for 5 min at 37 °C. The metabolic reaction was initiated by the addition of an NADPH generating system (60 mM potassium phosphate buffer pH 7.4, 1.3 mM NADP, 3.3 mM glucose-6-phosphate, 0.3 µL glucose-6-phosphate dehydrogenase (0.4 U/mL), and 3.3 mM magnesium chloride) and incubated at 37 °C. Aliquots of 100 µL were withdrawn at 0, 10, 20, 30 and 60 min, and 2 volumes of ice-cold acetonitrile (ACN) were added to terminate the reaction. After mixing by vortex and centrifugation (14000 rpm) for 15 min at 4 °C, the supernatant was transferred to liquid chromatography vials and analyzed by an LC-MS/MS system.
(§3) Table S1. In vitro metabolic stability of selected compounds.
(§4) Compounds Human Rat Mouse […]
(§5) a% remaining after 30 min incubation with S9 microsomal fraction.

[8] = In vitro metabolic stability, rat; format: in vitro ADME; conditions: pH 7.4, % remaining after 30 min incubation with S9 microsomal fraction
Description: as §1, §2, §3, §4, §5

[9] = In vitro metabolic stability, mouse; format: in vitro ADME; conditions: pH 7.4, % remaining after 30 min incubation with S9 microsomal fraction
Description: as §1, §2, §3, §4, §5

hMOR = tested on: hMOR; set-up: method as in earlier work; conditions: ref 21 (Gassaway et al.); cited from earlier work
mMOR = tested on: mMOR; set-up: method as in earlier work; conditions: ref 21 (Gassaway et al.); cited from earlier work

Row | Compound | IC50 [1] [µM] | agonistic activity at the κ-opioid receptor [4] | activation at 10 µM [4] [%] | EC50 [5] [µM] | agonistic activity at the μ-opioid receptor ([5]; HEK-hMOR calcium mobilization) | EC50 (hOPRM1 receptor) [µM] | maximum possible effect (MPE) [6] [%] | effect on paw withdrawal threshold (PWT) / allodynia [6] | motor function and pinna and corneal reflexes (rats) | in vitro metabolic stability [7] | recovery at 30 min, 1 µM [7] [%] | recovery at 30 min, 1 µM [8] [%] | recovery at 30 min, 1 µM [9] [%] | other results
1 | CN1c2ccccc2C(NCCCCCCC(=O)NCCc2c[nH]c3ccc(O)cc23)c2ccc(Cl)cc2S1(=O)=O (centres unmarked) [Compound 12, 7-((3-chloro-6-methyl-5,5-dioxido-6,11-dihydrodibenzo[c,f][1,2]thiazepin-11-yl)amino)-N-(2-(5-hydroxy-1H-indol-3-yl)ethyl)heptanamide] | 9.66 ± 1 | did not show agonistic activities | < 10 | 1.2 ± 0.244 | partial agonisms | 0.134 ± 0.012 | 73 | dose-dependent increase in the withdrawal threshold; also recorded: increased the paw withdrawal threshold (PWT) compared to the vehicle | normal | extremely low | 5 | 6 | 5 | IC50 [2]: 0.258 ± 0.057 µM; inhibition at 10 µM ([3]; 10 μM, HEK-hNET, mean ± SEM, n = 3–6, read-out: % Inhibition at 10 μM hNET): 30.1 ± 0.87%; melting point: 92 to 95 °C
2 | CN1c2ccccc2C(NCCCCCCCNCCc2c[nH]c3ccc(O)cc23)c2ccc(Cl)cc2S1(=O)=O (centres unmarked) [Compound 17, 3-chloro-11-((7-((2-(5-hydroxy-1H-indol-3-yl)ethyl)amino)heptyl)amino)-6-methyl-6,11-dihydrodibenzo[c,f][1,2]thiazepine 5,5-dioxide] | 2.01 ± 0.65 | no influence; also recorded: did not show agonistic activities | < 10 | 0.384 ± 0.025 | partial agonisms | 1.56 ± 0.195 | 83 | increased mechanical withdrawal threshold compared to vehicle; also recorded: significantly reduced allodynia; also recorded: increased the PWT; also recorded: showed antiallodynic effects at the spinal level | normal | extremely low | 0 | 1 | 1 | IC50 ([2]; HEK-hSERT, neurotransmitter uptake, mean ± SEM, n = 3–6, read-out: IC50 hSERT): 0.07 ± 0.009 µM; fold higher hSERT inhibitory activity than compound 12 ([2]; IC50 ratio vs compound 12): 3 fold; IC50 [3]: 0.154 ± 0.007 µM; fold increase in Ca2+ efflux in HEK-hMOR ([5]; HEK-hMOR): 5.9 fold; β-arrestin recruitment (hOPRM1 receptor; CHO-K1 OPRM1): lower levels of β-arrestin recruitment than compound 12
3 | CN1c2ccccc2C(NCCCCCCC(=O)O)c2ccc(Cl)cc2S1(=O)=O (centres unmarked) [Tianeptine, reference compound] | – | did not show appreciable biological activities | < 10 | – | did not show appreciable biological activities | > 5 | – | – | – | – | – | – | – | % Stimulation at 10 μM, OPRM1 Agonism against DAMGO (3.9 μM) ([5]; 10 μM, HEK-hMOR calcium mobilization, normalized to Emax of DAMGO at 3.9 μM): <10% ^b; EC50 (hMOR): 0.194 µM; EC50 (mMOR): 0.641 µM
